Among the data in ChEMBL document CHEMBL3600310 (J Med Chem, 2015) are IC50 values, retold here.

Common to all, as to type: functional, cell-based
One test deals with A549. The test is described as follows: Cytotoxicity against human A549 cells after 72 hrs by MTT assay. Conditions: A549, 72 h. Background: Tetrazolium assays rely on reduction of a dye to a coloured formazan, in cell work by metabolically active cells.
The next test concerns HCT-116. The test is described as follows: Cytotoxicity against human HCT116 cells after 72 hrs by MTT assay. Conditions: HCT-116, 72 h.
Another test relates to MDA-MB-435. In words: Cytotoxicity against human MDA-MB-435 cells after 72 hrs by MTT assay. Conditions: MDA-MB-435, 72 h.

pIC50: −log10 of the molar value. Some results are limits rather than exact numbers.

By pIC50 is commonly meant the IC50 on a negative log10 scale, so that one unit is a factor of ten. As to `CN1c2cscc2C(=O)N2CCc3c([nH]c4ccc(O)cc34)C21` (stereo not given), the figures for the pIC50 in the test on A549, with HCT-116 and in the test with MDA-MB-435 were 5.41, 5.32 and 4.49, respectively.

On to `COc1ccc2[nH]c3c(c2c1)CCN1C(=O)c2cc(Cl)ccc2OC31` (stereo not given), for which the pIC50 in the test with A549 is 7.30; with HCT-116, 6.00; in the test on MDA-MB-435 it was 5.62.

For `Cc1ccc2c(c1)OC1c3[nH]c4ccccc4c3CCN1C2=O` (stereo not given), the pIC50 in the test with A549 was 4.20; in the test on HCT-116, 4.59; with MDA-MB-435, 4.01.

As for `CCc1c2c(nc3ccc(OC(=O)N4CCC(N5CCCCC5)CC4)cc13)-c1cc3c(c(=O)n1C2)COC(=O)[C@]3(O)CC` [IRINOTECAN], the pIC50 with A549 is 4.70; with HCT-116, 4.73; in the test on MDA-MB-435, 5.20.

For the compound `COc1ccc2[nH]c3c(c2c1)CCN1C(=O)c2ccccc2C31O` (stereo not given), the pIC50 in the test with A549, with HCT-116 and in the test with MDA-MB-435 was under 3.70 in each case.

As for `COc1ccc2[nH]c3c(c2c1)CCN1C(=O)c2cc(N)ccc2OC31` (stereo not given), the pIC50 in the test on A549 is 3.94; in the test on HCT-116, 4.37; in the test with MDA-MB-435, 3.88.

For `CN1c2ccsc2C(=O)N2CCc3c([nH]c4ccccc34)C21` (stereo not given), the pIC50 with A549 is 3.96; in the test with HCT-116, 3.72; in the test on MDA-MB-435 it was under 3.70.

On to `COc1ccc2[nH]c3c(c2c1)CCN1C(=O)c2ccsc2N(C)C31` (stereo not given), for which the values for the pIC50 in the test on A549, with HCT-116 and with MDA-MB-435 were 4.57, 4.85 and 4.44, respectively.

On to `CN1c2ccoc2C(=O)N2CCc3c([nH]c4ccccc34)C21` (stereo not given), for which the pIC50 in the test on A549 was under 3.70; in the test with HCT-116, 3.75; with MDA-MB-435, 3.74.

Take `CN1c2ccsc2C(=O)N2CCc3c([nH]c4ccc(O)cc34)C21` (stereo not given): the pIC50 in the test on A549 is 4.80; in the test on HCT-116, 4.63; in the test with MDA-MB-435, under 3.70.

For `COc1ccc2[nH]c3c(c2c1)CCCN1C(=O)c2ccccc2N(C)C31` (stereo not given), the pIC50 in the test with A549, in the test with HCT-116 and in the test on MDA-MB-435 was under 3.70 throughout.

On to `CCCNc1ccc2c(c1)C(=O)N1CCc3c([nH]c4ccccc34)C1O2` (stereo not given), for which the pIC50 in the test on A549 was 3.76; in the test with HCT-116, 4.78; with MDA-MB-435 it was under 3.70.

In the case of `O=C1c2cc(Br)ccc2OC2c3[nH]c4ccc(O)cc4c3CCN12` (stereo not given), the results for the pIC50 in the test on A549, with HCT-116 and in the test with MDA-MB-435 were 7.22, over 8.52 and over 8.52, respectively.

`COc1ccc2[nH]c3c(c2c1)CCN1C(=O)c2ccc(Cl)cc2OC31` (stereo not given): the pIC50 was 5.42 with A549, 5.06 in the test with HCT-116 and 5.34 with MDA-MB-435.

As for `O=C1c2c(ccc3ccccc23)OC2c3[nH]c4ccc(O)cc4c3CCN12` (stereo not given), the pIC50 is 5.51 in the test on A549, 5.20 in the test with HCT-116 and 5.57 with MDA-MB-435.

For `COc1ccc2[nH]c3c(c2c1)CCN1C(=O)c2ccccc2OC31` (stereo not given), the pIC50 in the test on A549, with HCT-116 and with MDA-MB-435 was under 3.70 each time.

As to `COc1ccc2[nH]c3c(c2c1)CCN1C(=O)c2ccc4ccccc4c2OC31` (stereo not given), the pIC50 with A549, in the test with HCT-116 and with MDA-MB-435 was under 3.70 in each case.

Turning to `COc1ccc2c(c1)C(=O)N1CCc3c([nH]c4ccccc34)C1O2` (stereo not given), the results for the pIC50 in the test with A549, in the test on HCT-116 and in the test on MDA-MB-435 were 4.83, 4.59 and under 3.70, respectively.

For `O=C1c2ccc(C(F)(F)F)cc2OC2c3[nH]c4ccc(O)cc4c3CCN12` (stereo not given), the figures for the pIC50 in the test on A549, with HCT-116 and in the test with MDA-MB-435 were 4.83, 4.96 and 4.98, respectively.

Regarding `CC(C)CNc1ccc2c(c1)C(=O)N1CCc3c([nH]c4ccccc34)C1O2` (stereo not given), the figures for the pIC50 with A549, in the test on HCT-116 and with MDA-MB-435 were under 3.70, 5.28 and under 3.70, respectively.

Consider `O=C1c2ccc(F)cc2OC2c3[nH]c4ccccc4c3CCN12` (stereo not given), for which the pIC50 in the test on A549 is 4.02; in the test with HCT-116, 5.17; in the test on MDA-MB-435 it was 3.77.

As for `O=C1c2cccc(O)c2OC2c3[nH]c4ccccc4c3CCN12` (stereo not given), the pIC50 in the test with A549 is 3.99; in the test with HCT-116 it was under 3.70; in the test with MDA-MB-435, 4.37.

Regarding `O=C1c2ccc(Cl)cc2OC2c3[nH]c4ccccc4c3CCN12` (stereo not given), the pIC50 in the test with A549 was 4.23; with HCT-116, 4.39; in the test with MDA-MB-435, 4.47.

On to `COc1ccc2[nH]c3c(c2c1)CCN1C(=O)c2cc(Br)ccc2OC31` (stereo not given), for which the pIC50 in the test on A549 is 5.59; with HCT-116, 5.27; with MDA-MB-435, 5.15.

In the case of `COc1cccc2c1OC1c3[nH]c4ccccc4c3CCN1C2=O` (stereo not given), the values for the pIC50 with A549, in the test on HCT-116 and with MDA-MB-435 were 4.57, 5.66 and 4.77, respectively.

Take `COc1ccc2[nH]c3c(c2c1)CCN1C(=O)c2ccccc2[C@H]31`: the pIC50 is 3.71 in the test with A549, 4.51 in the test with HCT-116 and under 3.70 in the test with MDA-MB-435.

For the compound `Cc1cccc2c1C(=O)N1CCc3c([nH]c4ccc(O)cc34)C1O2` (stereo not given), the pIC50 with A549 was 5.74; in the test with HCT-116, over 8.52; in the test with MDA-MB-435, over 8.52.

In the case of `COc1ccc2[nH]c3c(c2c1)CCN1C(=O)c2cc(F)ccc2OC31` (stereo not given), the pIC50 was 4.88 in the test on A549, 4.60 in the test with HCT-116 and 4.44 in the test on MDA-MB-435.

In the case of `Nc1ccc2c(c1)C(=O)N1CCc3c([nH]c4ccccc34)C1O2` (stereo not given), the results for the pIC50 in the test on A549, in the test on HCT-116 and in the test on MDA-MB-435 were 5.57, 5.64 and 5.04, respectively.

With `COc1ccc2[nH]c3c(c2c1)CCN1C(=O)c2c(ccn2C)N(C)C31` (stereo not given), the pIC50 in the test on A549 was 4.55; with HCT-116 it was 4.27; in the test on MDA-MB-435 it was 4.38.

Take `COc1ccc2c(c1)OC1c3[nH]c4ccc(OC)cc4c3CCN1C2=O` (stereo not given): the pIC50 in the test on A549, with HCT-116 and with MDA-MB-435 was under 3.70 each time.

Turning to `O=C1c2ccccc2OC2c3[nH]c4ccc(Cl)cc4c3CCN12` (stereo not given), the pIC50 in the test with A549 is 5.46; with HCT-116 it was 5.68; in the test with MDA-MB-435 it was 5.25.

For `CN1c2ccccc2C(=O)N2CCc3c([nH]c4ccccc34)[C@@H]21` [EVODIAMINE], the figures for the pIC50 in the test on A549, with HCT-116 and with MDA-MB-435 were under 3.70, under 3.70 and 4.66, respectively.

In the case of `Cc1cccc2c1C(=S)N1CCc3c([nH]c4ccccc34)C1O2` (stereo not given), the pIC50 was 4.96 in the test on A549, 5.42 in the test with HCT-116 and 5.35 in the test on MDA-MB-435.

As for `COc1ccc2[nH]c3c(c2c1)CCN1C(=O)c2c(ccc4ccccc24)OC31` (stereo not given), the figures for the pIC50 in the test with A549, with HCT-116 and in the test on MDA-MB-435 were under 3.70, under 3.70 and 4.51, respectively.

For the compound `O=C1c2ccccc2OC2c3[nH]c4ccccc4c3CCN12` (stereo not given), the pIC50 in the test on A549 was 5.62; in the test on HCT-116 it was 5.51; in the test on MDA-MB-435, 5.52.

As for `COc1ccc2[nH]c3c(c2c1)CCN1C(=O)c2cc4ccccc4cc2OC31` (stereo not given), the pIC50 in the test with A549 was under 3.70; with HCT-116 it was 4.24; in the test with MDA-MB-435, 4.46.

In the case of `O=C1c2ccc(O)cc2OC2c3[nH]c4ccccc4c3CCN12` (stereo not given), the pIC50 in the test on A549 is 4.76; with HCT-116 it was 4.27; in the test with MDA-MB-435 it was 4.53.

In the case of `CN1c2ccccc2C(=O)N2CCCc3c(oc4ccc(O)cc34)C21` (stereo not given), the pIC50 in the test with A549, in the test with HCT-116 and in the test on MDA-MB-435 was under 3.70 throughout.

As for `O=C1c2cc([N+](=O)[O-])ccc2OC2c3[nH]c4ccccc4c3CCN12` (stereo not given), the pIC50 in the test on A549, in the test on HCT-116 and in the test on MDA-MB-435 was under 3.70 in each case.
